Reference: ChEMBL document CHEMBL1139601, “Novel 2-N,N-dimethylaminomethyl-2,3,3a,12b-tetrahydrodibenzo[b,f]furo[2,3-d]oxepin derivatives displaying combined norepinephrine reuptake inhibition and 5-HT2A/2C receptor antagonism” (Bioorg Med Chem Lett, 2005)

Tests used:
Mus musculus = experiment: In vivo effective dose for the reversal of RO-4-1284 induced hypothermia in mice; assay type: functional
Rattus norvegicus [1] = experiment: In vivo effective dose for the reversal of tryptamine-induced bilateral convulsions in rat; assay type: functional
Rattus norvegicus [2] = experiment: In vivo effective for the antagonism of m-chlorophenyl-piperazine induced anxiety in rat; assay type: functional
Rattus norvegicus [3] = experiment: In vivo effective dose for the reversal of tryptamine-induced cyanosis in rat; assay type: functional
[4] = target: 5-hydroxytryptamine receptor 2A (Homo sapiens, UniProt P28223); experiment: In vitro binding affinity against 5-hydroxytryptamine 2A receptor using [125I]R91150 as radioligand expressed in L929 cells; assay type: cell-based
[5] = target: T1, 5-hydroxytryptamine receptor 2C (Homo sapiens, UniProt P28335); experiment: In vitro binding affinity against 5-hydroxytryptamine 2C receptor using [3H]mesulergine as radioligand expressed in CHO cells; assay type: cell-based
T1 sequence (P28335 whole entry): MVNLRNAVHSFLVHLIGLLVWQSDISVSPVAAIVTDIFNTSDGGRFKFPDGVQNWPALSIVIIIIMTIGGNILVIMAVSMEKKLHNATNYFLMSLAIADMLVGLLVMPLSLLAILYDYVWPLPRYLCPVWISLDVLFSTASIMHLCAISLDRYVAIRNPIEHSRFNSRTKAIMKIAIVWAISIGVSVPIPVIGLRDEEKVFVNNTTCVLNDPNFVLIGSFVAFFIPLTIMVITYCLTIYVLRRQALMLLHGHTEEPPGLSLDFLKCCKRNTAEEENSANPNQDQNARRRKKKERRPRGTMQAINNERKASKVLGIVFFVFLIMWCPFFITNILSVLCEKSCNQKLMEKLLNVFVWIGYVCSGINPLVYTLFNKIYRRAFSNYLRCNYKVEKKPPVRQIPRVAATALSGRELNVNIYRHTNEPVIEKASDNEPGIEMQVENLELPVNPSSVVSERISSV

Chain of 5-hydroxytryptamine receptor 2A (P28223 whole entry): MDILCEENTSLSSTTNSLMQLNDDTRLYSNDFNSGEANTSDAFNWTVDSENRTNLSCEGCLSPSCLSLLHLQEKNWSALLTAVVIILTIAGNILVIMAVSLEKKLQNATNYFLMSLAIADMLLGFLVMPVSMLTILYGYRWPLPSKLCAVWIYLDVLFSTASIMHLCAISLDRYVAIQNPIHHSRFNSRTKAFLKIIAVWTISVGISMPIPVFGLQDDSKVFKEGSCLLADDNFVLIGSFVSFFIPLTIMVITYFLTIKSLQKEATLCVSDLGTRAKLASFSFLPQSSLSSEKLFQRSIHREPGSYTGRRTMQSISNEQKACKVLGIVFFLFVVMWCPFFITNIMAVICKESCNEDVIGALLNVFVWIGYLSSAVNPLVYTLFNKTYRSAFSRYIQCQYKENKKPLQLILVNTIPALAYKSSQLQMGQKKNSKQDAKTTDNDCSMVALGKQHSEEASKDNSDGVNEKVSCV

SMILES	ED50 (Mus musculus) [mg/kg]	ED50 (Rattus norvegicus [1]) [mg/kg]	ED50 (Rattus norvegicus [2]) [mg/kg]	ED50 (Rattus norvegicus [3]) [mg/kg]	Ki [4] [µM]	Ki [5] [µM]
CN(C)C[C@@H]1C[C@H]2c3ccccc3Oc3ccc(Cl)cc3[C@H]2O1	0.5	0.08	> 2.5	0.2		
N#Cc1ccc2on(C[C@@H]3C[C@H]4c5ccccc5Oc5ccc(Br)cc5[C@H]4O3)c2c1					0.185	0.183
O=C1CCN1c1ccc2on(C[C@@H]3C[C@H]4c5ccccc5Oc5ccc(Br)cc5[C@H]4O3)c2c1					0.306	0.356
COc1ccc2c(c1)[C@H]1O[C@@H](CN(C)C)C[C@H]1c1ccccc1O2					0.193	0.235
CN(C)C[C@@H]1C[C@H]2c3ccccc3Oc3ccc(F)cc3[C@H]2O1	0.02	0.5	0.5	0.5	0.104	
CN(C)C[C@@H]1C[C@H]2c3ccccc3Oc3ccc(Br)cc3[C@H]2O1	3.15	0.32	> 2.5	0.79		0.006
CN(C)C[C@H]1C[C@H]2c3ccccc3Oc3ccc(F)cc3[C@H]2O1	0.13	1.98	> 2.5	5	0.423	0.063
Brc1ccc2c(c1)[C@H]1O[C@H](Cn3oc4ccc(N5CCOCC5)cc43)C[C@H]1c1ccccc1O2					0.306	> 5.45
CN(C)C[C@H]1C[C@H]2c3ccccc3Oc3ccc(Br)cc3[C@H]2O1						0.087
CN(C)C[C@H]1C[C@H]2c3ccccc3Oc3ccccc3[C@@H]2O1	1.25	3.15	> 2.5	> 2.5	0.092	0.183
CN(C)c1ccc2on(C[C@@H]3C[C@H]4c5ccccc5Oc5ccc(Br)cc5[C@H]4O3)c2c1					0.095	0.157
Brc1ccc2c(c1)[C@H]1O[C@H](Cn3oc4ccc(CN5CCOCC5)cc43)C[C@H]1c1ccccc1O2					0.189	4.1
CN(C)C[C@H]1C[C@H]2c3ccccc3Oc3ccc(Cl)cc3[C@H]2O1	0.05	0.32	> 2.5	0.8		0.021
Brc1ccc2c(c1)[C@H]1O[C@H](Cn3oc4ccc(-c5ccccc5)cc43)C[C@H]1c1ccccc1O2					0.307	0.183
CCOC(=O)c1ccc2on(C[C@@H]3C[C@H]4c5ccccc5Oc5ccc(Br)cc5[C@H]4O3)c2c1					0.097	0.246
Cc1ccc2on(C[C@@H]3C[C@H]4c5ccccc5Oc5ccc(Br)cc5[C@H]4O3)c2c1	1.99	0.5	0.8	0.5	0.036	0.058
Nc1ccc2on(C[C@@H]3C[C@H]4c5ccccc5Oc5ccc(Br)cc5[C@H]4O3)c2c1					0.255	0.27
COc1ccc2c(c1)[C@H]1O[C@H](CN(C)C)C[C@H]1c1ccccc1O2	0.79	0.32	> 2.5	1.26	0.022	
CN(C)C[C@H]1C[C@@H]2c3ccccc3Oc3ccccc3[C@H]2O1	> 2.5	> 2.5		> 2.5	0.016	0.179
